Results on two molecules are retold here after patent US20170268001A1, “RNAS WITH TUMOR RADIO/CHEMO-SENSITIZING AND IMMUNOMODULATORY PROPERTIES AND METHODS OF THEIR PREPARATION AND APPLICATION” (THE UNIVERSITY OF CHICAGO, priority 2016, published 2017).

The data set has as its target T1, RIG-I (Homo sapiens, UniProt O95786, K858A/K861A).
T1 construct: HEK293 cells overexpressing either the full length RIG-I; host or cells: HEK293; HCT116 also for the qRT-PCR validation
T1 sequence (O95786 1-925 K858A/K861A): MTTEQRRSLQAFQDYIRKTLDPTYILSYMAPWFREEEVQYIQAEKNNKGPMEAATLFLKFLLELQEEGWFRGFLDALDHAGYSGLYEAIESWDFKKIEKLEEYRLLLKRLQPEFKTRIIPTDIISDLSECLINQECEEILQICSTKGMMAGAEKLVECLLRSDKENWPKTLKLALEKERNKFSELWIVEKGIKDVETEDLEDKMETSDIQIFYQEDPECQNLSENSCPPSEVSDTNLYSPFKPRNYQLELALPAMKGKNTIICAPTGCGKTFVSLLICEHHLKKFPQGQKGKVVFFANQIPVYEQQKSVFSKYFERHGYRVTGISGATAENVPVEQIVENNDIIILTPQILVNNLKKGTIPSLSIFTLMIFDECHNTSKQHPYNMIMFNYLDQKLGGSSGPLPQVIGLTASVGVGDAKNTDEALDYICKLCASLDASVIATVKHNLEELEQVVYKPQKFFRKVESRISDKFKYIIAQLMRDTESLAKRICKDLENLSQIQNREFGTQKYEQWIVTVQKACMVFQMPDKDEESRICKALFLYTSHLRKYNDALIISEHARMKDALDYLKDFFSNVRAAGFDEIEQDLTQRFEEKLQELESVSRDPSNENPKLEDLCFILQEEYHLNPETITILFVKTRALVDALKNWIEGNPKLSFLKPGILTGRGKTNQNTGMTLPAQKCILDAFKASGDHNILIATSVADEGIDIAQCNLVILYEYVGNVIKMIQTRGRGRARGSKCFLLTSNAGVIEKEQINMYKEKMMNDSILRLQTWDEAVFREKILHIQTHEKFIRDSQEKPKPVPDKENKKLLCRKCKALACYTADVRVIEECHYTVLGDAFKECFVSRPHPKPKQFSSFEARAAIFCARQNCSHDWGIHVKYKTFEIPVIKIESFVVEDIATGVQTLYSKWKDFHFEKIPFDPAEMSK
The data set can be described thus: UV cross-linking with quantitative real-time PCR (CLIP-PCR) of RIG-I complexes. The format is binding. On the procedure:
Graphic representation indicating the distribution of non-coding and repetitive RNA molecules bound to RIG-I following exposure to IR as compared to total irradiated cellular RNA. Transcripts were mapped to reference genomes using RepeatMasker. See Methods for further details. […] Cells were UV crosslinked at 150 mJ/cm^2 48 hours post-IR treatment prior to cell lysis. […] FIG. 29H show IFN-b levels in culture supernatant from ICR RIG-I^+/+ and primary MEFs 24 hours post-stimulation with the same set of synthetic U1 oligonucleotides used in (FIG. 29G) The amount of U1 synthetic oligonucleotides used in all stimulation experiments was 1 μg. P values were determined using unpaired Student's t-test. Error bars are SEM. ***P<0.005.
Technically, identification of RNAs was performed as follows: HEK293 cells were transiently transfected with 3×FLAG-tagged full-size RIG-I in pEF-BOS vector (Addgene; Cambridge, Mass.). Twenty-four hours post-transfection, cells were either mock-irradiated or exposed to IR (6 Gy). Forty-eight hours post-IR, cells were lysed with a modified lysis buffer (50 mM Tris-Cl pH 7.5, 0.15 M NaCl, 0.1% NP-40, 1.0% Triton X-100, 1 mM EDTA pH8.0, 1 mM EGTA pH8.0, 10% Glycerol, 2.5 mM MgCl2, 1 mM DTT, 0.1 mM ATP, and 1× Halt Protease Inhibitor) and incubated on ice for 1 hour. Cell lysates were separated from cell debris by centrifugation at 12,000 rpm at 4° C. Protein concentration was measured by BCA kit. Anti-FLAG monoclonal antibody was added to the cell lysate at a 1:500 dilution, and incubated overnight at 4° C. Protein G sepharose beads were added to the lysates and incubated for at least 2 hours at 4° C. Beads containing the antibody-RIG-I complexes were washed five times in wash buffer (50 mM Tris-Cl pH 7.5, 0.15 M NaCl, 1 mM MgCl2, 0.05% NP-40, 1 mM DTT) and proteins were eluted from the beads using a soft elution buffer (0.5% SDS, 0.1% Tween-20, 50 mM Tris pH 8.0) for 10 minutes at room temperature with vortexing every 2-3 minutes. Proteinase K was added to the eluates and incubated at 50° C. for 45 minutes. Trizol reagent was then added to the solution, and RNA bound to RIG-I was purified following manufacturer's protocol. RNA quality was analyzed using an Agilent Bioanalyzer 2100 with Pico Series II cartridges. RNA yield was measured using the Qubit RNA Broad Range kit. For qRT-PCR validation experiments of RIG-I pulled down RNA, UV cross-linking (2 doses at 150 mJ/cm^2) was performed on HEK293 and HCT116 overexpressing RIG-I prior to cell lysis. The same protocol for pulldown and RNA purification experiments was performed as described above.
On the technique in general: Quantitative PCR measures a nucleic acid by following its amplification.

Turning to U2: snRNA, SEQ ID NO:21, where the note is “HEK293 overexpressing K858A-K861A RNA binding deficient mutant RIG-I”, the “levels in RIG-I pulldown after IR” value was “did not detect increased levels”.

B1: M5: rbRNA, RIG-I agonist, 81 nucleotides, SEQ ID NO:26 (nucleic acid)
chain: GACGAAGACCACAAAACCAGATAAAAAATTATTTTTTATCTGGTTTTGTGGTCTTCGTCTATAGTGAGTCGTATTAATTTC
modifications: listed as DNA, chemistry not given here
As to B1, the “binding to K858A-K861A RNA binding deficient mutant RIG-I” value (CLIP-PCR) is “did not bind”.
